From ChEMBL document CHEMBL3797158, “Discovery of potent, reversible MetAP2 inhibitors via fragment based drug discovery and structure based drug design-Part 1” (Bioorg Med Chem Lett, 2016)

Columns and labels:
Mus musculus [1] = assay: Oral bioavailability in diet-induced obese mouse at 5 mg/kg; format: ADME, organism-based; settings: in vivo
[2] = Volume of distribution in diet-induced obese mouse at 5 mg/kg, po or 1 mg/kg, iv; format: ADME, organism-based; settings: in vivo
[3] = biological target: Methionine aminopeptidase 2 (Homo sapiens, UniProt P50579); assay: Inhibition of MetAP2 in HUVEC assessed as accumulation of N-Met-14-3-3gamma after 24 hrs by Western blot method; format: cell-based
[4] = Half life in diet-induced obese mouse at 5 mg/kg, po or 1 mg/kg, iv; format: ADME, organism-based; settings: in vivo
Mus musculus [5] = assay: AUC in diet-induced obese mouse at 5 mg/kg, po; format: ADME, organism-based; settings: in vivo
Mus musculus [6] = assay: Antiobesity activity in po dosed diet-induced obese mouse assessed as body weight loss administered as qd for 28 days; format: functional, organism-based
Cytochrome P450 1A2 = biological target: T1, Cytochrome P450 1A2 (Homo sapiens, UniProt P05177); assay: Inhibition of human CYP1A2 expressed in Escherichia coli DH5-alpha; format: ADME
T1 sequence (P05177 whole entry): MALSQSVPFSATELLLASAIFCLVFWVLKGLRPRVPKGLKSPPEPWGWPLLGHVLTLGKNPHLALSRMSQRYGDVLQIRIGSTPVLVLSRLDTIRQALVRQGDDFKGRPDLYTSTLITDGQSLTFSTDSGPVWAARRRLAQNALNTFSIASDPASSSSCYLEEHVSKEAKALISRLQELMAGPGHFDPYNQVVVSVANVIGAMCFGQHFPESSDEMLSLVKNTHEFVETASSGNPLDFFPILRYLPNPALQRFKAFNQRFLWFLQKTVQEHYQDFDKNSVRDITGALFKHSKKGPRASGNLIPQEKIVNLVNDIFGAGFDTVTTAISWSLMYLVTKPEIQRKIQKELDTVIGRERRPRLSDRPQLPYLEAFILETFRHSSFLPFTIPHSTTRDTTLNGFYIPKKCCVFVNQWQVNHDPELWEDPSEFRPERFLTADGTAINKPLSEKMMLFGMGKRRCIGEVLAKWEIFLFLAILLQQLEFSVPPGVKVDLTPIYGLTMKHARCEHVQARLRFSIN

Chain of Methionine aminopeptidase 2 (P50579 whole entry): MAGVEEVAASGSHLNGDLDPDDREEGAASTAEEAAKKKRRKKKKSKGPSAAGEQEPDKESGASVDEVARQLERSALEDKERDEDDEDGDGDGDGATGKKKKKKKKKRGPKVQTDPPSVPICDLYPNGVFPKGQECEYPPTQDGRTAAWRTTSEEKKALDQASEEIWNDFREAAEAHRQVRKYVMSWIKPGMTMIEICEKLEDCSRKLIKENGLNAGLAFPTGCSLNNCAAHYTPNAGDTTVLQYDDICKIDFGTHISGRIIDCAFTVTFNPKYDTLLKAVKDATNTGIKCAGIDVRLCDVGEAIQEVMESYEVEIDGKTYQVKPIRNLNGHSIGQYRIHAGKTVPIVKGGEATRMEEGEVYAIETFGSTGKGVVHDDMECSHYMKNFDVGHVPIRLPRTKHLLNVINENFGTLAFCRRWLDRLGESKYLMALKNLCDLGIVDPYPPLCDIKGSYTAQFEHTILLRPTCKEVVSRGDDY

Row | IC50 (Cytochrome P450 1A2) | Structure (SMILES) | other results
1 | > 50.1 µM | Cc1cc(C(=O)NCCO)ncc1-c1cc(C(F)(F)F)cc2[nH]ncc12 | –
2 | > 50.1 µM | COc1cc(C(=O)NCCO)ccc1-c1cc(C(F)(F)F)cc2[nH]ncc12 | –
3 | 0.316 µM | FC(F)(F)c1cc(-c2ccc3nccn3c2)c2cn[nH]c2c1 | –
4 | > 50.1 µM | Cc1nc(N2CC[C@H](O)C2)ncc1-c1cc(C(F)(F)F)cc2[nH]ncc12 | EC50 [3]: 0.121 µM

The remaining lines, values behind:

Row | Structure (SMILES) | IC50 (Cytochrome P450 1A2) | other results
5 | Cc1nc(N2CC[C@@H](O)C2)ncc1-c1cc(C(F)(F)F)cc2[nH]ncc12 [TP-004] | > 50.1 µM | F (Mus musculus [1]): 58%; Vd [2]: 1.25 L/kg; EC50 [3]: 0.015 µM; half-life [4]: 2 h; AUC (Mus musculus [5]): 15084 ng·h/mL; Activity (Mus musculus [6]): Dose-dependent effect
6 | O=C(NCCO)c1ccc(-c2cc(C(F)(F)F)cc3[nH]ncc23)c(F)c1 | > 50.1 µM | –
7 | CNC(=O)c1ccc(-c2cc(C(F)(F)F)cc3[nH]ncc23)c(OC)c1 | 15.8 µM | –
